Laboratory results as given in PMC8126654, “Novel Pan-Pim Kinase Inhibitors With Imidazopyridazine and Thiazolidinedione Structure Exert Potent Antitumor Activities” (Frontiers in Pharmacology, 2021).
Where two headings read alike, the source gives them in different places. Each block holds one compound with its values, some of them ahead of it.

Experiments:
[1] = cited from earlier work
[2] = target: T1, Pim-1 (Homo sapiens, UniProt P11309); assay: In vitro Pim kinase activity assay (FRET-based Z'-LYTE), Pim-1; assay type: biochemical; conditions: ATP 400 µM; read-out: IC50 values for enzyme activities, Pim-1
T1 construct: purchased Life Technologies; Thermo Fisher Scientific Inc
T1 sequence (P11309 whole entry): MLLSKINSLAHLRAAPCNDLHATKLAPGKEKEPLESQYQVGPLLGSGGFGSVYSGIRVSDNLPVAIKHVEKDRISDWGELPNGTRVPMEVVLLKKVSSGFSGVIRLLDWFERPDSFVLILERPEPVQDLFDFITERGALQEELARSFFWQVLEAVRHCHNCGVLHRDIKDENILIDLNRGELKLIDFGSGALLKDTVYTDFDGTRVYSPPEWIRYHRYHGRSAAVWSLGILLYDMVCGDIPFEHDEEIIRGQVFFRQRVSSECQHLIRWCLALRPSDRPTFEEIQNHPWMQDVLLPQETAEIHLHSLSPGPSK
Procedure: (§1) The inhibition ratios of test compounds for Pim-1, 2 (Life Technologies; Thermo Fisher Scientific Inc., MA, United States), 3 (Merck KgaA), and FLT3 (Life Technologies; Thermo Fisher Scientific Inc., MA, United States) were determined using a modified FRET-based Z′-LYTE kinase assay kit (Invitrogen; Thermo Fisher Scientific Inc.). The Ser/Thr 7 peptide and Tyr-2 peptide were used as substrates for Pim kinases and FLT3, respectively. The reactions were carried out in a 384-well plate with a 10 µL reaction volume per well containing 1 µM substrates in 50 mM HEPES buffer with pH 7.5, 0.01% BRIJ-35, 10 mM MgCl2, 1 mM EGTA, and an appropriate amount of kinases (Pim-1: 0.03 μg/ml, Pim-2: 0.2 μg/ml, Pim-3: 0.2 μg/ml, FLT3: 0.1 μg/ml) with test compounds. The final reaction concentrations of ATP were 400, 5, 100, and 500 µM for Pim-1, 2, 3, and FLT3 respectively. After 1 h incubation, reactions were developed and terminated, and fluorescence ratios were calculated following the manufacturer’s protocol.

[3] = target: T2, Pim-3 (Homo sapiens, UniProt Q86V86); assay: In vitro Pim kinase activity assay (FRET-based Z'-LYTE), Pim-3; assay type: biochemical; conditions: ATP 100 µM; read-out: IC50 values for enzyme activities, Pim-3
T2 construct: purchased Merck KgaA
Procedure: as §1

[4] = target: T3, Pim-2 (Homo sapiens, UniProt Q9P1W9); assay: In vitro Pim kinase activity assay (FRET-based Z'-LYTE), Pim-2; assay type: biochemical; conditions: ATP 5 µM; read-out: IC50 values for enzyme activities, Pim-2
T3 construct: purchased Life Technologies; Thermo Fisher Scientific Inc
T3 sequence (Q9P1W9 whole entry): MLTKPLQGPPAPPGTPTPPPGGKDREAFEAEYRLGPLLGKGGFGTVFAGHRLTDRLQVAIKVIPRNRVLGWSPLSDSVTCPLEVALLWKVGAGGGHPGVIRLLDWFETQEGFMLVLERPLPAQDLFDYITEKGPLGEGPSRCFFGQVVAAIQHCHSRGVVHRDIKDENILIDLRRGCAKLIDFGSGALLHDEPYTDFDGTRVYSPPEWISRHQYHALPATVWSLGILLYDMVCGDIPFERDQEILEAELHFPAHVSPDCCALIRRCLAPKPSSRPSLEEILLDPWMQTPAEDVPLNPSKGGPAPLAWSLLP
Procedure: as §1

[5] = tested on: cancer cell lines; assay: Cytotoxicity assay for cell survival (cancer cell proliferation); assay type: cell-based; conditions: 96 hours; read-out: IC50 for proliferation of a broad spectrum of cancer cell lines (range)
Description: We obtained colon cancer HCT116 and HT-29 cells, prostate cancer PC-3, DU145, and LNCaP cells, lung cancer NCI-H460 and NCI-H522 cells, breast cancer MDA-MB-231 cells, AML MV-4-11 cells, and chronic myeloid leukemia (CML) K-562, MEG-01, and KU812 cells from American Type Culture Collection (Manassas, VA, United States); stomach cancer MKN45 cells from the Health Science Research Resources Bank (Osaka, Japan); pancreatic cancer AsPC-1 and MIA PaCa-2, and lung cancer A549 cells from DS Pharma Biomedical (Osaka, Japan). All cell lines were cultured in RPMI1640 medium (Life Technologies; Thermo Fisher Scientific Inc.) with 10% (v/v) fetal bovine serum (FBS; Sigma-Aldrich; Merck KgaA) at 37°C in 5% CO2.
Cells were seeded in 96-well plates and test compounds were added to the cultures at several concentrations.

[6] = target: T4, FLT3 (Homo sapiens, UniProt P36888); assay: FLT3 kinase activity assay (FRET-based Z'-LYTE); assay type: biochemical; conditions: ATP 500 µM; read-out: IC50 against FLT3 kinase
T4 construct: purchased Life Technologies; Thermo Fisher Scientific Inc
T4 sequence (P36888 27-993): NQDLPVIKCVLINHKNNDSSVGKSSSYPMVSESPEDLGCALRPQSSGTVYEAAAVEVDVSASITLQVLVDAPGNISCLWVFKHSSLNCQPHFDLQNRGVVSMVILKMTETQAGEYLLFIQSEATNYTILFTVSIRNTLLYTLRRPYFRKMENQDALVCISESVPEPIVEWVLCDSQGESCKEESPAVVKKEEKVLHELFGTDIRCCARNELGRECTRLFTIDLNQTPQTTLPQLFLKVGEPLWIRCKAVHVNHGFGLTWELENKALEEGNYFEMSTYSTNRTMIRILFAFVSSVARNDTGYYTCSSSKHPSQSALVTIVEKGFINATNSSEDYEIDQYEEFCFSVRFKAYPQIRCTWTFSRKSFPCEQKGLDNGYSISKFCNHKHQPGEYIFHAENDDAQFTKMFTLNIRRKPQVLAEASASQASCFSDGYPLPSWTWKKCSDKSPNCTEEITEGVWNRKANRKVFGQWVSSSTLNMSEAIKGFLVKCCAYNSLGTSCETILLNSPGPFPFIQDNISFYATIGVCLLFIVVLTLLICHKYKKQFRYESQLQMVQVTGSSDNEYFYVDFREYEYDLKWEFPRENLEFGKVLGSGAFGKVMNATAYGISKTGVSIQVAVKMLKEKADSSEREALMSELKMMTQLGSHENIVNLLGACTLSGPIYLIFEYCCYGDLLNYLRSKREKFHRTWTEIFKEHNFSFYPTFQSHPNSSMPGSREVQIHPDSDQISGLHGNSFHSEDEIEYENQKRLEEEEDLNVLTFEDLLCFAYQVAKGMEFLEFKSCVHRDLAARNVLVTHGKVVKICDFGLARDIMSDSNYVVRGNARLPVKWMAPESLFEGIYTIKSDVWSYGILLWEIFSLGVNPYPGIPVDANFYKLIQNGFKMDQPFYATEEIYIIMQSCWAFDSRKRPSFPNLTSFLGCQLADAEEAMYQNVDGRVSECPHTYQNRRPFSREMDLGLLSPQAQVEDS
Procedure: as §1

[7] = tested on: PC-3; assay: Immunoblot analysis of phosphorylation of Pim kinase substrates, PC-3; assay type: cell-based; conditions: PC-3, 4 h
Procedure: (§2) Cells were plated overnight and then treated with test compounds for 4 hours. Then, the cells were lyzed in solubilization buffer [10 mM Tris-HCl (pH7.4), 0.1% (w/v) NP-40, 0.1% (w/v) sodium deoxycholate, 0.1% (w/v) SDS, 0.15 M NaCl, 1 mM EDTA, 10 µM aprotinin] with phosphatase inhibitor cocktails (Nakarai Tesque, Kyoto, Japan), and subjected to SDS-PAGE using 15% (w/v) gels under reducing conditions. The separated proteins were electrotransferred to Immobilon transfer membranes (Merck Millipore, Darmstadt, Germany). Then, each membrane was reacted with primary antibodies, which were subsequently complexed with appropriate horseradish peroxidase-conjugated secondary antibodies. Signals were detected using the ECL Western Blotting Detection System (GE Healthcare Life Sciences) and protein expression was quantified with a LAS-3000 Luminescent Image Analyzer (GE Healthcare Life Sciences). The protein bands were quantified using ImageQuant TL software (GE Healthcare Life Sciences).

[8] = target: T1, Pim-1; assay: Binding detection based on SPR platform (BIACORE T200); conditions: 6.5, 13, 25, or 50 µM
Procedure: The interactions between test compounds and Pim-1 were detected by surface plasmon resonance platform BIACORE T200 (GE Healthcare Life Sciences, Buckinghamshire, England). Pim-1 was diluted to 20 μg/ml in 10 mM acetate buffer (pH 5.0), and then immobilized as a ligand in the N-hydroxysuccinimide/ethyl 3-(3-dimethylaminopropyl) carbodiimide-pre-activated CM5 sensor chip, following blocking by ethanolamine. Test compounds were diluted at 6.5, 13, 25, or 50 µM in a vehicle of 5% DMSO (v/v) in phosphate buffered saline (PBS). The dilutions were injected as analyte flow liquid phase with PBS containing 5% DMSO (v/v) as running buffer at a constant flow rate of 30 μL/min. A 2-min association time was set. The data were collected by Biacore Control Software. Kinetics and affinity parameters were evaluated with the Langmuir model (1:1) using BIA evaluation software.

[9] = tested on: PC-3 xenograft model; assay: In vivo xenograft study, PC-3; parameters: species or system BALB/cSlc-nu/nu mice; conditions: for TGI (tumor growth inhibition): intravenously every 4 days
Procedure: (§3) For evaluation of antitumor activity, MV-4-11 (5 × 10^6 cells) or PC-3 cells (2 × 10^6 cells) were injected subcutaneously in the inguinal region of 6-week-old male BALB/cSlc-nu/nu mice (Japan SLC, Inc., Shizuoka, Japan), with Matrigel (BD Biosciences, San Jose, CA, USA). When the average tumor volume (length × width^2 × 1/2) had reached 40 to 120 mm^3, animals were randomized into groups of seven mice for vehicle control group of MV-4-11 xenograft model or five mice for the other groups (day 1). Test compounds were injected into the tail vein every 4 days from day 1, with an administration volume of 10 ml/kg. Tumor volumes were measured 2 times per week and body weights of the mice were monitored on 2 or 3 times per week as an indicator of tolerability. On day 22 or 16, antitumor activity was evaluated by weighing tumor tissues. Tumor growth inhibition, TGI (%), was calculated according to formula (1 − T/C) × 100, where T and C are the mean tumor weights for the experimental and vehicle control groups, respectively. The differences between the mean tumor weights for comparing groups were analyzed using Dunnett’s test, where P < 0.05 was considered to be significant.

[10] = tested on: MV-4-11 xenograft model; assay: In vivo xenograft study, MV-4-11; parameters: species or system BALB/cSlc-nu/nu mice; conditions: for TGI (tumor growth inhibition): intravenously every 4 days
Procedure: as §3

[11] = tested on: phosphorylation level of 4E-BP in PC-3 tumors; assay: Pharmacodynamics study in PC-3 xenograft tumors (phospho-4E-BP immunoblot); assay type: in vivo, mice; conditions: single dose 187.5 mg/kg
Procedure: as §2
Tumors were resected 1, 2, 6, or 24 h after injection and lyzed for immunoblot analysis.

[12] = experiment not completed (data not shown)

SMILES: N[C@@H]1CCCN(c2c(/C=C3\SC(=O)NC3=O)cccc2-c2ccccc2)C1 [AZD1208]
Reason for termination of clinical study ([1]; ref NCT01489722): lack of clinical response

SMILES: CN1CCC(CNc2ccc3ncc(-c4cccc(OC(F)(F)F)c4)n3n2)CC1 [SGI-1776]
Reason for termination of clinical study ([1]; ref NCT00848601): dose-limiting toxicity

SMILES: CN1CCN(c2ccc(-c3cnc4ccc(/C=C5\SC(=O)NC5=O)nn34)cc2)CC1.CS(=O)(=O)O [YPC-21440 MsOH, (Z)-5-([3-{4-(4-methylpiperazin-1-yl)phenyl}imidazo[1,2-b]pyridazin-6-yl]methylene)thiazolidine-2,4-dione methanesulfonate]
Body weight loss [9, 12]: serious body weight loss | Tumor growth [9, 12]: tended to be suppressed | TGI (tumor growth inhibition) ([10]; 62.5 mg/kg/dose): 26% | Body weight decrease (as much as) compared with day 1 ([10]; 125 mg/kg/dose): 5.2 ± 10% | TGI (tumor growth inhibition) ([10]; 125 mg/kg/dose): 60% | Body weight decrease (as much as) compared with day 1 ([10]; 187.5 mg/kg/dose): 7.1 ± 21% | TGI (tumor growth inhibition) ([10]; 187.5 mg/kg/dose): 77%

SMILES: CCN1CCN(c2ccc(-c3cnc4ccc(/C=C5\SC(=O)NC5=O)nn34)cc2F)CC1.CS(=O)(=O)O [YPC-21817 MsOH, (Z)-5-([3-{4-(4-ethylpiperazin-1-yl)-3-fluorophenyl}imidazo[1,2-b]pyridazin-6-yl]methylene)thiazolidine-2,4-dione methanesulfonate]
TGI (tumor growth inhibition) ([9]; 62.5 mg/kg/dose): 0.92% | TGI (tumor growth inhibition) ([9]; 125 mg/kg/dose): 8.4% | TGI (tumor growth inhibition) ([9]; 187.5 mg/kg/dose): 48% | Serious decrease in body weight ([9]; evaluation period): not observed | Phosphorylation level of 4E-BP in tumors ([11]; 1, 2, and 6 hours after administration): signigficantly decreased | Phosphorylation level of 4E-BP in tumors ([11]; 24 hours after administration): almost completely recovered | TGI (tumor growth inhibition) ([10]; 62.5 mg/kg/dose): 20% | TGI (tumor growth inhibition) ([10]; 125 mg/kg/dose): 39% | TGI (tumor growth inhibition) ([10]; 187.5 mg/kg/dose): 70% | Serious decrease in body weight ([10]; evaluation period): not observed

Continued, in another order:

IC50 [2]: 430 nM | IC50 [3]: 360 nM | IC50 [4]: 490 nM
SMILES: CCCCCN1CCN(c2ccc(-c3cnc4ccc(/C=C5\SC(=O)NC5=O)nn34)cc2F)CC1 [YPC-21813, (Z)-5-([3-{4-(4-pentylpiperazin-1-yl)-3-fluorophenyl}imidazo[1,2-b]pyridazin-6-yl]methylene)thiazolidine-2,4-dione]

IC50 [6]: 2000 nM | Phosphorylation levels of Bad, 4EBP, and p21 [7]: decreased
SMILES: CCN1CCN(c2ccc(-c3cnc4ccc(/C=C5\SC(=O)NC5=O)nn34)cc2F)CC1 [YPC-21817, (Z)-5-([3-{4-(4-ethylpiperazin-1-yl)-3-fluorophenyl}imidazo[1,2-b]pyridazin-6-yl]methylene)thiazolidine-2,4-dione]
IC50 [5]: 24 to 650 nM

IC50 [2]: > 1800 nM | IC50 [3]: > 1800 nM | Binding to Pim-1 by SPR (Biacore) [8]: did not bind to Pim-1 | IC50 [4]: > 1800 nM
SMILES: CCCCCCCCCCN1CCN(c2ccc(-c3cnc4ccc(/C=C5\SC(=O)NC5=O)nn34)cc2F)CC1 [YPC-21814, (Z)-5-([3-{4-(4-decylpiperazin-1-yl)-3-fluorophenyl}imidazo[1,2-b]pyridazin-6-yl]methylene)thiazolidine-2,4-dione]

IC50 [2]: 120 nM | IC50 [3]: 540 nM | IC50 [4]: 190 nM
SMILES: CN1CCN(c2ccc(-c3cnc4ccc(/C=C5\SC(=O)NC5=O)nn34)cc2C(C)(C)C)CC1 [YPC-21867, (Z)-5-([3-{3-(tert-butyl)-4-(4-methylpiperazin-1-yl)phenyl}imidazo[1,2-b]pyridazin-6-yl]methylene)thiazolidine-2,4-dione]
